Data reported in ChEMBL document CHEMBL1201862, “PubChem BioAssay data set” (2004).
Calls of active or inactive are those of the source. Cut-off read from the data, not from the text of the source: actives have a measured IC50 and inactives only a lower limit.

Target: Envelope glycoprotein gp160 (Human immunodeficiency virus 1, UniProt Q6QLK5)
Assay: inhibitors of HIV fusion peptide binding, primary screen, biochemical, uHTS, fluorescence dequenching (AID 1986)

Sequence of Envelope glycoprotein gp160 (Q6QLK5 whole entry, the tested form may be a part): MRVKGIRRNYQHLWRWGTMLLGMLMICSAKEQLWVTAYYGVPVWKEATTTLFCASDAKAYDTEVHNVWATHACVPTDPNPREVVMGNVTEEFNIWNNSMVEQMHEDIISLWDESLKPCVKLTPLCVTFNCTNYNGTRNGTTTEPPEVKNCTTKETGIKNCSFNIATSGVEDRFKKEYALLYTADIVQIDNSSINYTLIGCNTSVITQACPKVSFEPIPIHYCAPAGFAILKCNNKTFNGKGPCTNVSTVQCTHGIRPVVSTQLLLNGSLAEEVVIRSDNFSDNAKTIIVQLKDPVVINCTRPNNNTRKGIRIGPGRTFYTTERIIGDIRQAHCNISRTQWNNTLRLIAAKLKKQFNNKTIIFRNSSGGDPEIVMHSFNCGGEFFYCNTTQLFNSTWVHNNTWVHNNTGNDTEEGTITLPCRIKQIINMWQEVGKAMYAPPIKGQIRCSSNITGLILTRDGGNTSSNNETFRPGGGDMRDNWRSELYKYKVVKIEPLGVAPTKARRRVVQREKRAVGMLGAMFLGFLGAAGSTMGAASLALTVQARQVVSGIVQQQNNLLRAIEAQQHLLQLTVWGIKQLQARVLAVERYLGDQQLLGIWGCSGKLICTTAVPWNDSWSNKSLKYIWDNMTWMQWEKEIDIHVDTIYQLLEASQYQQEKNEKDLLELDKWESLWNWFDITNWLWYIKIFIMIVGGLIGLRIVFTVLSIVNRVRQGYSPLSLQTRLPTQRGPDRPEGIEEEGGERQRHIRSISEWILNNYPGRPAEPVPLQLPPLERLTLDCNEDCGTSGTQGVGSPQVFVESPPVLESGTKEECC

Row | Structure (SMILES) | IC50
1 | CN(C)S(=O)(=O)c1cccc(-c2nn(-c3ccccc3)cc2/C=C2\SC(=S)N(CC(=O)O)C2=O)c1 | 15.3 µM (active)
2 | CC1=C(C(=O)OC(C)C)C(c2ccc(Cl)cc2)n2c(s/c(=C\c3ccc(OCC(=O)O)cc3)c2=O)=N1 (configuration not stated) | 13.4 µM (active)
